Experimental data published in ChEMBL document CHEMBL1147930, “Selective inhibition of the interaction of C1q with immunoglobulins and the classical pathway of complement activation by steroids and triterpenoids sulfates” (Bioorg Med Chem, 2007).
Counter-ions that a name gives are not always drawn.

Columns and labels:
[1] = Toxicity in sheep erythrocytes assessed as intrinsic hemolytic activity; format: cell-based, Ovis aries, Erythrocyte; details: read-out: ED50 (the source's name)
[2] = Inhibition of classical pathway of complement activation in sheep erythrocytes in presence of guinea-pig serum; format: functional, cell-based, Ovis aries; details: erythrocyte
[3] = Inhibition of alternative pathway of complement activation in rabbit erythrocytes in presence of human serum; format: functional, cell-based, Oryctolagus cuniculus; details: erythrocyte
[4] = Inhibition of C1q immunoglobulin interaction by ELISA; parameters: species or system Homo sapiens
[5] = Inhibition of classical pathway of complement activation in sheep erythrocytes in presence of human serum; format: functional, cell-based, Ovis aries; details: erythrocyte
[6] = Inhibition of C1q immunoglobulin interaction by hemolytic method; parameters: species or system Homo sapiens

| SMILES | HC50 [1] | IC50 [2] | IC50 [3] | Ki [4] | IC50 [5] | Ki [6] |
| --- | --- | --- | --- | --- | --- | --- |
| C[C@]12CC[C@H]3[C@@H](CC=C4C[C@@H](OS(=O)(=O)O)CC[C@@]43C)[C@@H]1CC[C@@H]2C(=O)O | > 1600 µM | 410 µM | – | – | – | – |
| C[C@H](CCC(=O)O)[C@H]1CC[C@H]2[C@@H]3CC=C4C[C@@H](OS(=O)(=O)O)CC[C@]4(C)[C@H]3CC[C@]12C | > 400 µM | 23.7 µM | – | – | – | – |
| CC1(C)[C@@H](OS(=O)(=O)O)CC[C@]2(C)[C@H]3CC[C@@H]4[C@H]5[C@H](C6(C)CC6(Cl)Cl)CC[C@]5(COS(=O)(=O)O)CC[C@@]4(C)[C@]3(C)CC[C@@H]12 (some centres not stated) | 85 µM | 6.8 µM | – | – | – | – |
| C=C(C)[C@@H]1CC[C@]2(COP(=O)(O)O)CC[C@]3(C)[C@H](CC[C@@H]4[C@@]5(C)CC[C@H](OP(=O)(O)O)C(C)(C)[C@@H]5CC[C@]43C)[C@@H]12 [BETULIN DIPHOSPHATE] | > 800 µM | 42.6 µM | – | – | – | – |
| C=C(C)[C@@H]1CC[C@]2(COS(=O)(=O)O)CC[C@]3(C)[C@H](CC[C@@H]4[C@@]5(C)CC[C@H](OS(=O)(=O)O)C(C)(C)[C@@H]5CC[C@]43C)[C@@H]12 [BETULIN DISULFATE] | 850 µM | 6.9 µM | 414 µM | 42.2 µM | 14.6 µM | 8.6 µM |
| C=C(C)[C@@H]1CC[C@]2(C(=O)O)CC[C@]3(C)[C@H](CC[C@@H]4[C@@]5(C)CC[C@H](OS(=O)(=O)O)C(C)(C)[C@@H]5CC[C@]43C)[C@@H]12 [BETULINIC ACID SULFATE] | > 900 µM | 9.9 µM | 640 µM | 57.3 µM | 53.8 µM | 14.6 µM |
| C[C@H](CCC(=O)O)[C@H]1CC[C@H]2[C@@H]3[C@H](OS(=O)(=O)O)C[C@@H]4C[C@H](OS(=O)(=O)O)CC[C@]4(C)[C@H]3C[C@H](OS(=O)(=O)O)[C@]12C [CHOLIC ACID TRISULFATE] | > 1400 µM | 101 µM | – | – | – | – |
| C[C@H](CCC(=O)O)[C@H]1CC[C@H]2[C@@H]3CC[C@@H]4C[C@H](OS(=O)(=O)O)CC[C@]4(C)[C@H]3C[C@H](OS(=O)(=O)O)[C@]12C [DEOXYCHOLIC ACID DISULFATE] | > 1600 µM | 186 µM | – | – | – | – |
| CC1(C)CC[C@]2(C(=O)O)CC[C@]3(C)C(=CCC4[C@@]5(C)CC[C@H](OS(=O)(=O)O)C(C)(C)[C@@H]5CC[C@]43C)[C@@H]2C1 (some centres not stated) [OLEANOLIC ACID SULFATE] | 15 µM | – | – | – | – | – |
| C[C@H]1[C@H](C)CC[C@]2(C(=O)O)CC[C@]3(C)C(=CC[C@@H]4[C@@]5(C)CC[C@H](OS(=O)(=O)O)C(C)(C)[C@@H]5CC[C@]43C)[C@H]12 [URSOLIC ACID SULFATE] | > 900 µM | 25.2 µM | – | – | – | – |
